Patent US4882314A, “A composition and method of treating selected malignant conditions” (priority 1987, dated 1989)

Columns and labels:
tongue cancer = experiment: Experiment 3: clinical treatment of tongue cancer; assay type: in vivo, human
colon carcinoma = experiment: Experiment 2: clinical treatment of colon carcinoma with metastatic cancer in the liver; assay type: in vivo, human
Procedure: Person, colon carcinoma with metastatic cancer of 13 cm×10 cm×8 cm in the liver, abdominal dropsy observed.
The patient was subjected to abdominal surgery on June 4, 1979 but extraction of the cancer was impossible and the incised abdoment was immediately sutured.
Administration of 4,6-O-benzylidene-D-glucopyranose at a dosage of 20 mg/day/man (in the form of a physiological saline solution having an active ingredient concentration of 4 mg/ml) by intraperitoneal injection was stated on Aug. 25, 1979. The preparation for injection was prepared according to Example 1. In about one month, the abdominal dropsy disappeared, appetite improved and the overall body condition improved.
A C.T. scan of the liver of the patient before the start of the intraperitoneal injection, that was taken on Aug. 25, 1979, is shown in FIG. 1-A (the metastic lesion (A) appears on the left-side of the tomogram), and a C.T. scan of the same region taken on Dec.

W2K.11 cells = experiment: SV40 test: inhibition of proliferation of SV40-transformed malignant cells; assay type: cell-based, C3H mice; details: Mus musculus, read-out: proliferation inhibition ratio
Procedure: The SV40 (Simian Virus 40) method was adopted for determination of the carinostatic activity. According to this method, normal kidney cells of mice are transformed to malignant cells by the oncogenic virus SV40, the malignant cells are cultured, the test compound is added to the culture medium, the ratio of inhibition of proliferation of the cells is calculated and the carcinostatic activity is determined based on the calculated value. This method has recently been widely used because accurate results can be obtained [see proceedings of the Society for Experimental Biology and Medicine, 114, pages 721-727 (1963)].
The W2K.11 cells obtained by a malignant transformation of normal kidney cells of C3H mice by the oncogenic virus SV40 were used as cells for the test, and they were cultured according to the following method.
(1) Preparation of Culture Medium:
9.4 g of Eagle MEM Medium (manufactured by Nissui Seiyaku K.K.) was dissolved in 900 ml of distilled water and the solution was sterilized at 120° C., under pressure for 15 minutes. After cooling the sterilized solution, 100 ml of calf serum and 3 to 5 ml of a 10% aqueous solution of sodium hydrogencarbonate sterilized separately at 115° C. under pressure for 15 minutes were added to the solution to adjust the pH to 7.1 to 7.2. Just before the resulting culture medium was used, 10 ml of a L-glutamine solution (2.92 g/100 ml) filtered through A millipore filter was added thereto.
(2) Preparation of Test Cells:
The frozen test cells preserved in a deep freezer (-80° C.) with dimethyl sulfoxide added to the above culture medium to a final concentration of 10% were […] at room temperature and subjected to centrifugal separation under 670×g for 5 minutes. The supernatant was discarded and the precipitated cells were suspended in 50 ml of the culture medium. Then, the culture medium was transferred to a Roux flask and culturing was conducted at 37° C. The cells began to grow while adhering to the bottom of the flask, and sufficient growth was obtained in 3 to 4 days. […]

[1] = acute toxicity, oral administration or subcutaneous injection in mice; assay type: in vivo; details: mouse, in vivo; oral administration in mice
Procedure: (§1) The LD50 (mg/kg) value of the compound which is the active ingredient of the present invention, for example, in case of oral administration in mice is about 3000 mg/kg.

mice = experiment: as above; assay type: in vivo; details: subcutaneous injection or oral administration in mice
Procedure: as §1

[2] = toxicity / side effects on continuous administration; assay type: in vivo
[3] = system: peritonitis cartinimatosa; experiment: Experiment 4: clinical treatment of peritonitis carcinomatosa; assay type: in vivo, human; details: 200 mg/day/man intravenous infusion
Procedure: Administration of 4,6-O-benzylidene-D-glucopyranose at a dosage of 200 mg/day/man by intravenous infusion was started for the treatment of the patient.

primary liver tumor = experiment: Experiment 5: clinical treatment of primary liver tumor; assay type: in vivo, human; details: 200 mg/day/man intravenous infusion
Procedure: 4,6-O-benzylidene-D-glucopyranose was continuously administered at a dosage of 200 mg/day/man by intravenous infusion.

stomach cancer = experiment: Experiment 6: clinical treatment of stomach cancer; assay type: in vivo, human; details: 200 mg/day/man intravenous infusion
Procedure: Patient: Stomach cancer of the terminal stage, the stomach extracted but many metastasized lesion in abdominal cavity, peritonitis cartinimatosa observed. […] The preparation for infusion was prepared according to Example 1. […] However, the patient died about 3 months after the start of administration.

[4] = system: colon carcinoma, tongue cancer, peritonitis carcinomatosa, liver cancer and stomach cancer; experiment: clinical experiments, summary statement; assay type: in vivo, human; details: intravenous, about 20 to about 200 mg/day/man
[5] = stability and solubility, general statement; assay type: physicochemical
[6] = 20 mg/day/man intraperitoneal injection, about 3 months
[7] = 20 mg/day/man intraperitoneal injection, about one month
[8] = 200 mg/day/man intravenous infusion, after 10 days

For `N#C[C@H](O[C@@H]1O[C@H](CO[C@@H]2O[C@H](CO)[C@@H](O)[C@H](O)[C@H]2O)[C@@H](O)[C@H](O)[C@H]1O)c1ccccc1` [laetrile, amygdalin, reference compound], which “effect of prior treatment” value (tongue cancer; prior conventional chemotherapy, BCG, radiotherapy and laetrile) is on record?
The value was “no effect could be observed”.

For `O=c1[nH]c(=O)n(C2CCCO2)cc1F` (stereo not shown) [FT 207, reference compound], which “effect of prior treatment” value (colon carcinoma; FT 207 treatment with cobalt 60 radiotherapy, initiated before the operation) is on record?
Its value is “no effect had been observed”.

With `OC1O[C@@H]2COC(c3ccccc3)O[C@H]2[C@H](O)[C@H]1O` (stereo partly drawn) [4,6-O-benzylidene-D-glucopyranose] as the compound, how does the inhibition at 125 µg/mL (W2K.11 cells; 72 h, 125 mcg/ml) read?
The inhibition at 125 µg/mL was 23%.

And the inhibition at 250 µg/mL (W2K.11 cells; 72 h, 250 mcg/ml)?
The inhibition at 250 µg/mL was 37%.

And the inhibition at 500 µg/mL (W2K.11 cells; 500 mcg/ml, 72 hours of treatment)?
The inhibition at 500 µg/mL was 72%.

What about the LD50 [1] of the same compound?
The LD50 was about 3000 mg/kg.

What about the “acute toxicity compared with other carcinostatic agents” value (mice) of the same compound?
The value was “much lower than that of other carinostatic agents”.

What about the toxicity ([2]; continuous administration at the above-mentioned dosage) of the same compound?
Its toxicity is “no toxicity is observed”.

And the “toxicity, general statement” value ([2]; in vivo)?
Its value is “lowly toxic”.

What about the “excretion from a living body” value ([2]; when administered) of the same compound?
Its value is “readily excreted from a living body”.

What about the side effects ([2]; when administered) of the same compound?
The side effects was “no side effects are caused”.

And the “CEA unit value (the hepatic function test)” value (colon carcinoma; [6])?
The value was “remarkably reduced”.

And the “metastatic lesion in the liver” value (colon carcinoma; [6])?
Its value is “almost disappeared”.

What about the “metastatic lesion in the liver” value (colon carcinoma; 20 mg/day/man intraperitoneal injection, about 4 months, C.T. scan FIG. 1-A vs FIG. 1-B) of the same compound?
The value was “completely disappeared”.

What about the abdominal dropsy (colon carcinoma; [7]) of the same compound?
The abdominal dropsy was “disappeared”.

And the appetite (colon carcinoma; [7])?
Its appetite is “improved”.

What about the “metastatic lesion in the liver (C.T. scan)” value (colon carcinoma; [7]) of the same compound?
Its value is “contraction of the metastatic lesion in the liver had started”.

And the overall body condition (colon carcinoma; [7])?
Its overall body condition is “improved”.

And the patient outcome (colon carcinoma; after treatment, 20 mg/day/man intraperitoneal injection)?
The patient outcome was “has lead a normal life since then”.

And the “histopathology of the granular substance released from the submaxillar tumor” value (tongue cancer; 200 mg/day/man intravenous infusion)?
Its value is “composed of histopathologically keratinized squamous cells”.

What about the “malignant lesion of the tongue (photographs FIGS. 2-A, 3-A vs 2-B, 3-B)” value (tongue cancer; 200 mg/day/man intravenous infusion, Oct. 15 to Nov. 19, 1979) of the same compound?
The value was “disappeared”.

What about the submaxillar tumor (tongue cancer; [8]) of the same compound?
The submaxillar tumor was “softened and began to release a granular substance”.

And the “tumor on the tongue” value (tongue cancer; [8])?
Its value is “began to disappear”.

What about the patient outcome (tongue cancer; 200 mg/day/man intravenous infusion, terminal stage) of the same compound?
Its patient outcome is “died after about one month of treatment”.

What about the patient outcome [3] of the same compound?
Its patient outcome is “died of paritonitis periforative about one month after the start of treatment”.

And the abdominal dropsy ([3]; one week)?
The abdominal dropsy was “disappeared”.

And the “cancer metastasized to the skin” value ([3]; one week)?
Its value is “contraction of the cancer metastasized to the skin”.

What about the “condition of the disease” value ([3]; one week) of the same compound?
Its value is “subjective and objective improvements”.

And the abdominal dropsy (primary liver tumor; about one month)?
Its abdominal dropsy is “reduction in the abdominal dropsy”.

And the liver tumor (primary liver tumor; about one month)?
Its liver tumor is “prominent contraction of the liver tumor”.

And the patient outcome (primary liver tumor; terminal stage)?
Its patient outcome is “died after about four months of treatment”.

And the abdominal dropsy (stomach cancer; one month)?
The abdominal dropsy was “disappeared”.

And the subjective symptoms (stomach cancer; one month)?
The subjective symptoms was “remarkable improvement”.

And the “time to death after start of administration” value (stomach cancer; terminal stage)?
The value was “about 3 months”.

And the clinical effect [4]?
Its clinical effect is “prominent effect”.

What about the stability [5] of the same compound?
Its stability is “very stable”.

And the water solubility [5]?
The water solubility was “water-soluble”.
